In ChEMBL document CHEMBL5325400 (Eur J Med Chem, 2023):
Active and inactive are the calls of the source. The calls are words filed in the database; no cut-off is given here.

How the values were obtained:
A549 [1] = assay: Antimigratory activity against human A549 cells assessed as inhibition of cell migration at 10 nM and incubated for 12 hrs by scratch wound healing assay (reference value: 29.5 +/- 1.34%); format: functional; parameters: scale not given: the % may be the effect or the level left
B16-F10 = assay: Antimigratory activity against mouse B16-F10 cells assessed as inhibition of cell migration at 10 nM and incubated for 12 hrs by scratch wound healing assay (reference value: 81.9 +/- 0.64%); format: functional; parameters: scale not given: the % may be the effect or the level left
A549 [2] = assay: Antitumor activity against human A549 cells xenografted in BALB/c mouse assessed as reduction in EGFR phosphorylation at S473 residue in tumor at 5 to 10 mg/kg, ip administered every other day for 25 days by Western blotting analysis; format: functional, organism-based; settings: dose 5-10 mg/kg, time 25.0 day
A549 [3] = assay: Antitumor activity against human A549 cells xenografted in BALB/c mouse assessed as upregulation of cleaved PARP expression in tumor at 5 mg/kg, ip administered every other day for 25 days by Western blotting analysis; format: functional, organism-based; settings: time 25.0 day
A549 [4] = assay: Induction of apoptosis in human A549 cells assessed as viable cells at 10 nM incubated for 24 hrs by annexin V-FITC/propidium iodide staining based flow cytometry analysis (reference value: 96.44%); format: functional; settings: read-out: Activity
A549 [5] = assay: Induction of apoptosis in human A549 cells assessed as upregulation of Bad protein at 10 to 40 nM measured after 48 hrs by Western blot analysis; format: functional, cell-based; settings: dose 10-40 nM
[6] = AUC(0 to infinity) in Sprague-Dawley rat at 1 mg/kg, iv by LC-MS analysis; format: ADME, organism-based; parameters: dose 1 mg/kg, route iv; settings: in vivo
A549 [7] = assay: Induction of apoptosis in human A549 cells assessed as necrotic cells at 20 nM incubated for 24 hrs by annexin V-FITC/propidium iodide staining based flow cytometry analysis (reference value: 2.36%); format: functional
MDA-MB-231 = assay: Antiproliferative activity against human MDA-MB-231 cells assessed as inhibition of cell growth measured after 48 hrs by MTT assay; format: functional, cell-based; settings: MDA-MB-231, 48 h
A549 [8] = assay: Inhibition of colony formation in human A549 cells incubated for 6 days by crystal violet staining based analysis; format: functional, cell-based; settings: dose 1-20 nM, time 6.0 day
A549 [9] = assay: Antimigratory activity against human A549 cells assessed as inhibition of cell migration at 40 nM and incubated for 12 hrs by scratch wound healing assay (reference value: 29.5 +/- 1.34%); format: functional; parameters: scale not given: the % may be the effect or the level left
A2780/Taxol = assay: Antiproliferative activity against paclitaxel resistant human A2780/Taxol cells assessed as inhibition of cell growth incubated for 48 hrs by MTT assay; format: functional, cell-based
HepG2 = assay: Antiproliferative activity against human HepG2 cells assessed as inhibition of cell growth measured after 48 hrs by MTT assay; format: functional, cell-based; settings: HepG2, 48 h
A549 [10] = assay: Induction of cell cycle arrest in human A549 cells assessed as accumulation at G2 phase at 20 nM incubated for 24 hrs by PI staining based flow cytometry (Rvb= 12.49%); format: functional
A549 [11] = assay: Antitumor activity against human A549 cells xenografted in BALB/c mouse assessed as downregulation of Bcl-2 expression in tumor at 10 mg/kg, ip administered every other day for 25 days by Western blotting analysis; format: functional, organism-based; settings: time 25.0 day
A549 [12] = assay: Induction of cell cycle arrest in human A549 cells assessed as accumulation at G1 phase at 40 nM incubated for 24 hrs by PI staining based flow cytometry (Rvb= 65.68%); format: functional
[13] = AUC(0 to t) in Sprague-Dawley rat at 1 mg/kg, iv by LC-MS analysis; format: ADME, organism-based; parameters: dose 1 mg/kg, route iv; settings: in vivo
A549 [14] = assay: Induction of apoptosis in human A549 cells assessed as early apoptotic cells at 20 nM incubated for 24 hrs by annexin V-FITC/propidium iodide staining based flow cytometry analysis (reference value: 0.84%); format: functional
Tubulin (Sus scrofa) = Tubulin (Sus scrofa) (UniProt P02554+P02550); assay: Inhibition of porcine brain tubulin polymerization at 10 uM measured at 1 min interval for 60 mins by fluorescence based analysis
A549 [15] = assay: Induction of cell cycle arrest in human A549 cells assessed as accumulation at S phase at 40 nM incubated for 24 hrs by PI staining based flow cytometry (Rvb= 20.94%); format: functional
A549 [16] = assay: Induction of apoptosis in human A549 cells assessed as necrotic cells at 40 nM incubated for 24 hrs by annexin V-FITC/propidium iodide staining based flow cytometry analysis (reference value: 2.36%); format: functional
[17] = Toxicity in BALB/c nude mouse xenografted with human A549 cells assessed as pathological changes in kidney at 5 to 10 mg/kg, ip administered every other day for 25 days by hematoxylin and eosin staining based microscopic analysis; format: organism-based; settings: in vivo, 600 h, dose 5-10 mg/kg, time 25 day
A549 [18] = assay: Induction of cell cycle arrest in human A549 cells assessed as accumulation at S phase at 10 nM incubated for 24 hrs by PI staining based flow cytometry (Rvb= 20.94%); format: functional
A549 [19] = assay: Induction of cell cycle arrest in human A549 cells assessed as accumulation at G2 phase at 10 nM incubated for 24 hrs by PI staining based flow cytometry (Rvb= 12.49%); format: functional
A549 [20] = assay: Antitumor activity against human A549 cells xenografted in BALB/c mouse assessed as tumor weight at 10 mg/kg, ip administered every other day for 25 days; format: functional, organism-based; settings: time 25.0 day
A549 [21] = assay: Antitumor activity against human A549 cells xenografted in BALB/c mouse assessed as decrease in CD-31 expression in tumor at 10 mg/kg, ip administered every other day for 25 days by immunohistochemistry analysis; format: functional, organism-based; settings: time 25.0 day
A549 [22] = assay: Antiproliferative activity against human A549 cells expressing lentivirus RNAi VTI-96660 assessed as inhibition of cell growth measured after 48 hrs by MTT assay; format: functional, cell-based
[23] = Toxicity in BALB/c mouse assessed as change in body weight at 10 mg/kg, ip; format: organism-based; settings: in vivo
A549 [24] = assay: Residual cell migration in human A549 cells at 20 nM incubated for 12 hrs by crystal violet staining based transwell assay; settings: A549, 12 h
HeLa = assay: Antiproliferative activity against human HeLa cells assessed as inhibition of cell growth measured after 48 hrs by MTT assay; format: functional, cell-based
A549 [25] = assay: Inhibition of cell migration in human A549 cells assessed as total number of cells migrated at 5 nM incubated for 12 hrs by crystal violet staining based transwell assay (reference value: 724 +/- 16); format: functional
A549 [26] = assay: Antitumor activity against human A549 cells xenografted in BALB/c mouse assessed as tumor volume at 10 mg/kg, ip administered every other day for 25 days; format: functional; settings: time 25 day
A549 [27] = assay: Induction of apoptosis in human A549 cells assessed as late apoptotic cells at 40 nM incubated for 24 hrs by annexin V-FITC/propidium iodide staining based flow cytometry analysis (reference value: 0.37%); format: functional
[28] = Toxicity in BALB/c nude mouse xenografted with human A549 cells assessed as pathological changes in spleen at 5 to 10 mg/kg, ip administered every other day for 25 days by hematoxylin and eosin staining based microscopic analysis; format: organism-based; settings: in vivo, 600 h, dose 5-10 mg/kg, time 25 day
A549 [29] = assay: Antiproliferative activity against human A549 cells assessed as inhibition of cell growth measured after 48 hrs by MTT assay; format: functional, cell-based; settings: A549, 48 h

Tubulin (Sus scrofa), sequence (P02550 whole entry, looked up): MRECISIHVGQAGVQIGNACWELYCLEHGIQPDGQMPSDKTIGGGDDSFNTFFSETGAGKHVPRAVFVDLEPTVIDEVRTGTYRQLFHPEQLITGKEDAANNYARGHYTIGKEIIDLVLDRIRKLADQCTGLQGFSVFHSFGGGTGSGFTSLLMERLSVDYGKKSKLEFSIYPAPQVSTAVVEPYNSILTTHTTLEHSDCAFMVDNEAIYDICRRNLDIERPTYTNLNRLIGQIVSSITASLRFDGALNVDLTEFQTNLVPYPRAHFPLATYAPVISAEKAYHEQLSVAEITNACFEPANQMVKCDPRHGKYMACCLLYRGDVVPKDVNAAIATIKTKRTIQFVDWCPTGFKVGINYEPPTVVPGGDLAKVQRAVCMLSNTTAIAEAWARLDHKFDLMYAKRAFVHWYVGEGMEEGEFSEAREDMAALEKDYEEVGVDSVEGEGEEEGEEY
Tubulin (Sus scrofa), sequence (P02554 whole entry, looked up): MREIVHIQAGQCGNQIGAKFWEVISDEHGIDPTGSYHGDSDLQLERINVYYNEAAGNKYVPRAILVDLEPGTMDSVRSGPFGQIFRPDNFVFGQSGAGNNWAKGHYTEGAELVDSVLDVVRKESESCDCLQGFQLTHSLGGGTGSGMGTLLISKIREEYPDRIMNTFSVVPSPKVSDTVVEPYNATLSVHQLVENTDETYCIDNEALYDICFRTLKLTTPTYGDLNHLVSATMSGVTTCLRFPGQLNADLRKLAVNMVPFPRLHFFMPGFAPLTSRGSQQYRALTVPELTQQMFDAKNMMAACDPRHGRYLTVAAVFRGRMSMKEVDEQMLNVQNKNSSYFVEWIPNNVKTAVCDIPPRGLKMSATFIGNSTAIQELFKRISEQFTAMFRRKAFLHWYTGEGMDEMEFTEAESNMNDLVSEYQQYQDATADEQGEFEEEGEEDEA

In the case of `COc1cccc(Nc2cc(Nc3cccc(NC(=O)C4CC4)c3)ncn2)c1`, the Activity (A549 [1]) is reported as 15.8%, the Activity (B16-F10) is reported as 49.9% and the Activity (A549 [2]) is reported as “inactive”. The Activity (A549 [3]) was “Active”, the viability at 0.01 µM (A549 [4]) was 82.2% and the Activity (A549 [5]) was “Active”. For the same compound, the AUC [6] was 239.43 ng·h/mL, the Activity (A549 [7]) was 6% and the IC50 (MDA-MB-231) was 4.4 nM. The inhibition (A549 [8]) was “Dose-Dependent Effect”, the Activity (A549 [9]) was 6.1% and the IC50 (A2780/Taxol) was 132 nM. The IC50 (HepG2) was 1.8 nM, the Activity (A549 [10]) was 33.13% and the Activity (A549 [11]) was “Active”. The Activity (A549 [12]) was 21.8%, the AUC(0-t) [13] was 239 ng·h/mL and the Activity (A549 [14]) was 1.69%. The inhibition (Tubulin (Sus scrofa)) was “Active”, the Activity (A549 [15]) was 15.31% and the Activity (A549 [16]) was 5.78%. The Activity [17] was “Non-Toxic”, the Activity (A549 [18]) was 15.3% and the Activity (A549 [19]) was 23.37%. The Activity (A549 [20]) was “Active”, the Activity (A549 [21]) was “Active” and the Activity (A549 [22]) was “Active”. The Activity [23] was “Non-Toxic”, the level, % of control at 0.02 µM (A549 [24]) was 56.3% and the IC50 (HeLa) was 3.6 nM. For the same compound, the Activity (A549 [25]) was 635, the Activity (A549 [26]) was 63.77% and the Activity (A549 [27]) was 26.72%. For the same compound, the Activity [28] was “Non-Toxic” and the IC50 (A549 [29]) was 1.1 nM.
